Experimental findings from ChEMBL document CHEMBL1153216, “Parallel synthesis of N-biaryl quinolone carboxylic acids as selective M(1) positive allosteric modulators” (Bioorg Med Chem Lett, 2010) are described below.

Tested on in the first data set: not listed separately
The data set is described as follows: Plasma protein binding in human serum by equilibrium dialysis method. (Equilibrium dialysis compares concentrations on both sides of a semipermeable membrane.)
Consider `O=C(O)c1cn(Cc2ccc(-c3cn[nH]c3)cc2F)c2cccc(F)c2c1=O`, for which the fraction unbound (commonly free concentration divided by total concentration) was 0.044.
On the same count and under the same terms, under `O=C(O)c1cn(Cc2ccc(-c3cccnc3)cc2)c2cccc(F)c2c1=O` stands 0.055.
On the same count and under the same terms, for `O=C(O)c1cn(Cc2ccc(-c3cccc(CO)n3)cc2)c2c(F)cccc2c1=O` the value was 0.058.

For another data set, the target named is T1, Muscarinic acetylcholine receptor M1 (Homo sapiens) (UniProt P11229).
T1 sequence (whole entry): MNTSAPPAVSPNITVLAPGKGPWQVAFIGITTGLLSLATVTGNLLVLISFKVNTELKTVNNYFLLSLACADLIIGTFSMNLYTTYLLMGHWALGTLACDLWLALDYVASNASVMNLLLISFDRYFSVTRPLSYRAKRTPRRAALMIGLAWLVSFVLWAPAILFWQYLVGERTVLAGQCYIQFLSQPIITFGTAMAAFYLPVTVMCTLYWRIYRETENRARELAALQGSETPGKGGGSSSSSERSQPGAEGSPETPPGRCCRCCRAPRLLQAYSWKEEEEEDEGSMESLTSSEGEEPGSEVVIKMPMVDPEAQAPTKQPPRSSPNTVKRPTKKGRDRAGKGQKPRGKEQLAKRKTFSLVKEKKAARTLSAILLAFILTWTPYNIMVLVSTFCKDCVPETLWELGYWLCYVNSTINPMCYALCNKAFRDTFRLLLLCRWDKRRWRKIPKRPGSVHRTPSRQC
Put plainly: Allosteric modulation of human muscarinic M1 receptor expressed in CHO cells assessed as effect on acetylcholine-induced calcium mobilization by FLIPR assay. Format: functional, cell-based. For orientation: Calcium assays in cells follow changes in intracellular calcium, usually with a dye or a luminescent sensor.
On to `COc1ccc(Cn2cc(C(=O)O)c(=O)c3cccc(F)c32)cc1`, for which the IP worked out at 1100 nM.
`O=C(O)c1cn(Cc2ccc(Br)cc2F)c2c(F)cccc2c1=O`: the IP turned out to be 1200 nM.
The same measure, in the same setting: for `O=C(O)c1cn(CCc2ccccc2)c2c(F)cccc2c1=O` the value was 24000 nM; for `Nc1ccc(-c2ccc(Cn3cc(C(=O)O)c(=O)c4cccc(F)c43)cc2)cn1`, 130 nM; for `CS(=O)(=O)c1ccc(Cn2cc(C(=O)O)c(=O)c3cccc(F)c32)cc1`, 13000 nM.
Still for that read-out and setting: for `CS(=O)(=O)c1ccc(Cn2cc(C(=O)O)c(=O)c3c(F)ccc(F)c32)cc1` the value was 16000 nM.
`O=C(O)c1cn(Cc2ccc(C3CC3)cc2)c2c(F)cccc2c1=O`: the IP was found to be 1200 nM.
For `O=C(O)c1cn(Cc2ccc(-c3ccccc3)cc2Cl)c2ccccc2c1=O`, the IP worked out at 120 nM.
Take `O=C(O)c1cn(Cc2ccccc2C(F)(F)F)c2c(F)cccc2c1=O`: the IP came out at 6900 nM.
Still for that read-out and setting: for `O=C(O)c1cn(Cc2ccc(C(F)(F)F)cc2)c2c(F)cccc2c1=O` the value was 980 nM; for `O=C(O)c1cn(Cc2ccc(OC(F)(F)F)cc2)c2c(F)cccc2c1=O`, 2100 nM; for `O=C(O)c1cn(Cc2ccc(OC(F)(F)F)cc2)c2cccc(F)c2c1=O`, 2800 nM.
Still for that read-out and setting: for `O=C(O)c1cn(Cc2ccc(-c3cncnc3)cc2)c2c(F)cccc2c1=O` the value was 830 nM.
The same measure, in the same setting: under `O=C(O)c1cn(Cc2ccc(-c3ccncc3)cc2)c2c(F)cccc2c1=O` stands 100 nM; under `O=C(O)c1cn(Cc2ccc(-c3ccccc3)cc2)c2c(F)cccc2c1=O`, 380 nM; under `O=C(O)c1cn(Cc2ccc(-c3cn[nH]c3)cc2F)c2cccc(F)c2c1=O`, 41 nM.
Consider `N#Cc1ccccc1-c1ccc(Cn2cc(C(=O)O)c(=O)c3c(F)cccc32)cc1`, for which the IP came out at 400 nM.
For `COc1cccc(Cn2cc(C(=O)O)c(=O)c3c(F)ccc(F)c32)c1`, the IP came to 4200 nM.
On the same count and under the same terms, for `O=C(O)c1cn(Cc2ccccc2)c2c(F)ccc(F)c2c1=O` the value was 3000 nM; for `COc1cccc(Cn2cc(C(=O)O)c(=O)c3c(F)cccc32)c1`, 2100 nM; for `COc1ccc(Cn2cc(C(=O)O)c(=O)c3c(F)cccc32)cc1`, 2000 nM.
Still for that read-out and setting: for `O=C(O)c1cn(Cc2ccc(OC(F)(F)F)cc2)c2ccccc2c1=O` the value was 1800 nM.
`O=C(O)c1cn(Cc2ccc(C(F)(F)F)cc2)c2cccc(F)c2c1=O`: the IP stood at 1500 nM.
Turning to `O=C(O)c1cn(Cc2ccc(-c3ccccc3)cc2)c2c(F)ccc(F)c2c1=O`, the IP is 270 nM.
Turning to `O=C(O)c1cn(Cc2cccc(C(F)(F)F)c2)c2c(F)ccc(F)c2c1=O`, the IP turned out to be 1600 nM.
Same read-out and setting: under `O=C(O)c1cn(Cc2cccc(C(F)(F)F)c2)c2c(F)cccc2c1=O` stands 2700 nM.
The same measure, in the same setting: under `O=C(O)c1cn(Cc2ccc(-c3cccnc3)cc2)c2cccc(F)c2c1=O` stands 61 nM; under `O=C(O)c1cn(Cc2cccc(OC(F)(F)F)c2)c2ccccc2c1=O`, 4100 nM; under `O=C(O)c1cn(Cc2ccc(-c3ccccc3)cc2)c2cccc(F)c2c1=O`, 84 nM.
For `O=C(O)c1cn(Cc2c(F)cccc2F)c2c(F)ccc(F)c2c1=O`, the IP turned out to be 610 nM.
In the case of `O=C(O)c1cn(Cc2ccc(C3CC3)cc2)c2cccc(F)c2c1=O`, the IP was 830 nM.
Turning to `O=C(O)c1cn(Cc2ccc(-c3cccc4cccnc34)cc2)c2cccc(F)c2c1=O`, the IP turned out to be 190 nM.
On the same count and under the same terms, for `O=C(O)c1cn(Cc2ccc(-c3cn[nH]c3)cc2F)c2ccccc2c1=O` the value was 56 nM.
The same measure, in the same setting: under `O=C(O)c1cn(Cc2ccc(-c3cccc4[nH]ccc34)cc2)c2c(F)cccc2c1=O` stands 76 nM; under `CN(C)Cc1cccc(-c2ccc(Cn3cc(C(=O)O)c(=O)c4cccc(F)c43)cc2)c1`, 220 nM.
On the same count and under the same terms, under `O=C(O)c1cn(Cc2ccc(-c3cccc(CO)n3)cc2)c2c(F)cccc2c1=O` stands 250 nM.
For `O=C(O)c1cn(Cc2c(F)cccc2F)c2c(F)cccc2c1=O`, the IP stood at 1000 nM.
Same read-out and setting: under `N#Cc1ccccc1-c1ccc(Cn2cc(C(=O)O)c(=O)c3cccc(F)c32)cc1` stands 540 nM; under `O=C(O)c1cn(C2(c3ccccc3)CC2)c2ccccc2c1=O`, 13000 nM; under `O=C(O)c1cn(Cc2ccc(-c3ccccc3)cc2)c2ccccc2c1=O`, 210 nM.
On the same count and under the same terms, for `O=C(O)c1cn(Cc2cccc(C(F)(F)F)c2)c2ccccc2c1=O` the value was 7200 nM; for `O=C(NCCO)c1cccc(-c2ccc(Cn3cc(C(=O)O)c(=O)c4cccc(F)c43)cc2)c1`, 99 nM.
With `NC(=O)c1cccc(Cn2cc(C(=O)O)c(=O)c3cccc(F)c32)c1`, the IP was determined as 3400 nM.
As to `O=C(O)c1cn(Cc2cccc(OC(F)(F)F)c2)c2cccc(F)c2c1=O`, the IP was 5900 nM.
In the case of `CNc1ccc(-c2ccc(Cn3cc(C(=O)O)c(=O)c4cccc(F)c43)cc2)cn1`, the IP was 48 nM.
With `O=C(NC1CC1)c1ccc(-c2ccc(Cn3cc(C(=O)O)c(=O)c4cccc(F)c43)cc2)cc1`, the IP is 110 nM.
Same read-out and setting: for `O=C(O)c1cn(Cc2ccc(Br)cc2F)c2c(F)ccc(F)c2c1=O` the value was 860 nM; for `CS(=O)(=O)c1ccc(Cn2cc(C(=O)O)c(=O)c3ccccc32)cc1`, 18000 nM.
On the same count and under the same terms, under `O=C(O)c1cn(Cc2ccc(-c3ccccc3)cc2F)c2ccccc2c1=O` stands 50 nM; under `CN(C)c1cccc(-c2ccc(Cn3cc(C(=O)O)c(=O)c4cccc(F)c43)cc2)c1`, 94 nM; under `O=C(O)c1cn(Cc2ccccc2)c2ccccc2c1=O`, 1700 nM.
Still for that read-out and setting: under `COc1cccc(Cn2cc(C(=O)O)c(=O)c3cccc(F)c32)c1` stands 2700 nM; under `O=C(O)c1cn(Cc2ccccc2)c2c(F)cccc2c1=O`, 4000 nM.
Regarding `O=C(O)c1cn(Cc2ccccc2C(F)(F)F)c2ccccc2c1=O`, the IP was found to be 4300 nM.
Turning to `Cn1cc(-c2ccc(Cn3cc(C(=O)O)c(=O)c4ccccc43)c(F)c2)cn1`, the IP was determined as 37 nM.
The same measure, in the same setting: for `O=C(O)c1cn(Cc2cccc(OC(F)(F)F)c2)c2c(F)ccc(F)c2c1=O` the value was 3200 nM; for `NC(=O)c1cccc(Cn2cc(C(=O)O)c(=O)c3ccccc32)c1`, 4300 nM; for `O=C(O)c1cn(Cc2ccccc2C(F)(F)F)c2c(F)ccc(F)c2c1=O`, 2300 nM.
On to `O=C(O)c1cn(Cc2c(F)cccc2F)c2cccc(F)c2c1=O`, for which the IP was determined as 1300 nM.
As for `O=C(O)c1cn(C2(c3ccccc3)CC2)c2c(F)cccc2c1=O`, the IP turned out to be 22000 nM.
On the same count and under the same terms, under `O=C(O)c1cn(Cc2ccc(Br)cc2F)c2cccc(F)c2c1=O` stands 1100 nM.
The same measure, in the same setting: under `O=C(O)c1cn(Cc2ccc(OC(F)(F)F)cc2)c2c(F)ccc(F)c2c1=O` stands 1300 nM; under `COc1cccc(Cn2cc(C(=O)O)c(=O)c3ccccc32)c1`, 2800 nM; under `COc1ccc(-c2ccc(Cn3cc(C(=O)O)c(=O)c4cccc(F)c43)cc2)cn1`, 63 nM.
Regarding `O=C(O)c1cn(Cc2ccc(C(F)(F)F)cc2)c2c(F)ccc(F)c2c1=O`, the IP worked out at 760 nM.
Regarding `COc1ncc(-c2ccc(Cn3cc(C(=O)O)c(=O)c4ccccc43)c(F)c2)cn1`, the IP worked out at 510 nM.
Turning to `CN1CCN(c2ccc(-c3ccc(Cn4cc(C(=O)O)c(=O)c5cccc(F)c54)cc3)cn2)CC1`, the IP was 51 nM.
For the compound `Nc1cccc(-c2ccc(Cn3cc(C(=O)O)c(=O)c4cccc(F)c43)cc2)c1`, the IP amounted to 210 nM.
Still for that read-out and setting: for `CN(C)c1cc(-c2ccc(Cn3cc(C(=O)O)c(=O)c4cccc(F)c43)cc2)ccn1` the value was 45 nM; for `O=C(O)c1cn(Cc2cccc(OC(F)(F)F)c2)c2c(F)cccc2c1=O`, 3600 nM.
Regarding `O=C(O)c1cn(CCc2ccccc2)c2ccccc2c1=O`, the IP was over 100000 nM.

Tested on in a further data set: not listed separately
The data set is described as follows: Plasma protein binding in rat serum by equilibrium dialysis method.
Take `O=C(O)c1cn(Cc2ccc(-c3cn[nH]c3)cc2F)c2cccc(F)c2c1=O`: the unbound share (fraction unbound) was 0.02.
Turning to `O=C(O)c1cn(Cc2ccc(-c3cccnc3)cc2)c2cccc(F)c2c1=O`, the free fraction (fraction unbound) was 0.051.
On to `O=C(O)c1cn(Cc2ccc(-c3cccc4cccnc34)cc2)c2cccc(F)c2c1=O`, for which the unbound share (fraction unbound) is 0.015.
As to `O=C(O)c1cn(Cc2ccc(-c3cccc(CO)n3)cc2)c2c(F)cccc2c1=O`, the fraction unbound was 0.022.

Tested on in another data set: not listed separately
Put plainly: Drug level in rat cerebrospinal fluid at 10 mg/kg, po after 1 hr.
The compound `O=C(O)c1cn(Cc2ccc(-c3cccnc3)cc2)c2cccc(F)c2c1=O` yielded a concentration at 1 h of 24 nM.
